Measurements taken from US20200323962A1, “LIPOPHILIC PEPTIDE PRODRUGS” (YISSUM RESEARCH DEVELOPMENT COMPANY OF THE HEBREW …, priority 2017, published 2020).
Like-named read-outs stand apart in the source and are kept apart here. Marks after values point to notes of the source that are not given here. Where a SMILES comes first, the peptide text is derived from it. [ ]: non-standard residue; d: D form. Arg(ω,ω'-(C6H13OCO)2) = CCCCCCOC(=O)N=C(NCCC[C@H](N)C(=O)O)NC(=O)OCCCCCC

Legend:
in vitro = details: human; for efflux ratio at 90 min, 10 µM: Caco-2, pH 7.4, Net efflux (quotient of Papp (BA) to Papp (AB)); for Papp A→B at 90 min, 10 μM: Caco-2, pH 7.4, Papp (AB); for Papp B→A at 90 min, 10 μM: Caco-2, pH 7.4, Papp (BA)
[1] = for Mass retention / Permeability, Mean / Permeability, replicate 1 / Permeability, replicate 2 / Permeability, replicate 3: PAMPA, pH 7.4
Description: (§1) The Parallel Artificial Membrane Permeability Assay (PAMPA) is used as an in vitro model of passive, transcellular permeation. […] This assay also allows evaluation of permeability over a large pH range, which is valuable for a preliminary understanding of how orally delivered compounds might be absorbed across the entire gastrointestinal tract. […] Depending upon the types of lipids used and other experimental conditions, PAMPA may be designed to model absorption in gastrointestinal tract (PAMPA-GIT), blood-brain barrier penetration (PAMPA-BBB) or skin penetration (Skin PAMPA). All steps of the PAMPA were carried out according to pION Inc. PAMPA Explorer™ Manual. The main principle of the assay is the incubation of compound in donor chamber (a well in Donor Plate) with aqueous buffer, which is separated from acceptor chamber (a well in Acceptor Plate) with another buffer by a phospholipid or hydrocarbon membrane fixed on a filter support. After the test, concentrations in the corresponding donor and acceptor wells are measured and permeability is calculated. GIT model was simulated using GIT-0 phospholipid mix. […] All compounds were tested in triplicates. Prisma HT buffer (pH 7.4) containing 50 μM test compounds and 0.5% DMSO were added into the Donor Plate wells. Acceptor Sink buffer was added into each well of the acceptor plate. Incubation was done at room temperature for 4 hours without stirring. […] Compounds with low UV-Vis signal were detected by LC-MS/MS method. Then the apparent permeability coefficient was calculated.

PAMPA-GIT permeability = details: pH 7.4, 4 hours
Description: as §1

Caco-2 cells [2] = assay: Caco-2 permeability study (Examples 1-4); details: for Papp AB / Papp BA: Table 3, n = 3; for Caco-2 permeability: qualitative
Protocol: (§2) The culture growth medium consisted of DMEM supplemented with 10% heat-inactivated FBS, 1% MEM-NEAA, 2 mM 1-glutamine, 1 mM sodium pyruvate, 50,000 units Penicillin G Sodium and 50 mg Streptomycin Sulfate (Biological Industries). The medium was replaced every other day.
(§3) Cells (passage 55-60) were seeded at density of 25×10^5 cells/cm^2 on untreated culture inserts of polycarbonate membrane with 0.4 μm pores and surface area of 1.1 cm^2. Culture inserts containing Caco-2 monolayer were placed in 12 mm transwell plates (Corning). Culture medium was replaced every other day. Transepithelial Electrical Resistance (TEER) values were measured by Millicell ERS-2 System (Millipore) a week after seeding up to experiment day (21-23 days) to ensure proliferation and differentiation of the cells. When the cells were fully differentiated and TEER values became stable (200-500 Ω·cm^2). The TEER values were compared to control inserts containing only the medium.
(§4) The experiment was initiated by replacing the medium from both sides by apical (600 μl) and basolateral (1500 μl) buffers, both warmed to 37° C. The Cells were incubated with the buffers solutions for 30 min at 37° C. on a shaker (100 cycles/min). […] 50 μl samples were taken from the apical side immediately at the beginning of the experiment, resulting in 550 μl apical volume during the experiment.
(§5) Permeability Coefficient (Papp) for each compound was calculated from the linear plot of drug accumulated versus time, using the following equation:
(§6) Where dq/dt is steady state appearance rate of the compound on the receiver side, C0 is the initial concentration of the drug on the donor side, and A is the exposed tissue surface area (1.1 cm^2).
(§7) Transport studies were performed through the Caco-2 monolayer mounted in an Ussing-type chamber set-up with continuous trans-epithelial electrical resistance (TEER) measurements to assure TEER between 800 and 1200 Ω*cm^2. HBSS supplemented with 10 mM IVIES and adjusted to pH 6.5 were used as transport medium in the donor compartment and pH 7.4 in the acceptor compartment. The donor solution contained the test compound.
(§8) Permeability mechanism of compounds is studied by evaluating the Papp of a compound from the apical to the basolateral (A-to-B) membrane and its Papp from the basolateral to the apical membrane (B-to-A). The A-to-B assay simulates passive and transporter-mediated permeability. The B-to-A assay is essential complementary experiment indicative of the activity of P-gp. The ratio of the A-to-B and B-to A Papps (efflux ratio) is calculated to determine the permeability mechanism.

[3] = Log D determination (octanol/PBS pH 7.4); details: pH 7.4, octanol/PBS
Protocol: (§9) Log D. Determination of distribution coefficients were performed as follows:
(§10) Incubations were carried out in Eppendorf-type polypropylene microtubes in triplicates. […] Phase separation was assured by centrifugation for 2 min at 6000 rpm. The octanol phase was diluted 100-fold with 40% acetonitrile, and aqueous phase was analyzed without dilution. The samples (both phases) were analyzed using HPLC system coupled with tandem mass spectrometer.

[4] = Caco-2 A-B and B-A permeability with/without verapamil (Example 6); details: human, Caco-2, pH 7.4
Caco-2 cells [5] = assay: as above; details: 10 μM, 90 min, no verapamil
[6] = for Papp A→B: Caco-2, Papp (AB); for Papp B→A: Caco-2, Papp (BA)
[7] = pH 7.4, LogD
Protocol: as §9, §10

[8] = Caco-2 permeability study (Examples 1-4)
Protocol: as §2, §3, §4, §5, §6, §7, §8

[9] = pH 7.4 (mean in parentheses below reported bound)

CC(C)NCC(O)COc1cccc2ccccc12 (stereo not shown) [Propranolol]
efflux ratio at 90 min, 10 µM (in vitro): 0.8 | Papp A→B at 90 min, 10 μM (in vitro; Mean): 18.1 ×10⁻⁶ cm/s | Papp A→B at 90 min, 10 μM (in vitro; replicate 1): 14.9 ×10⁻⁶ cm/s | Papp A→B at 90 min, 10 μM (in vitro; replicate 2): 24.1 ×10⁻⁶ cm/s | Papp A→B at 90 min, 10 μM (in vitro; replicate 3): 15.3 ×10⁻⁶ cm/s | Papp B→A at 90 min, 10 μM (in vitro; Mean): 15.3 ×10⁻⁶ cm/s | Papp B→A at 90 min, 10 μM (in vitro; replicate 2): 15.3 ×10⁻⁶ cm/s | Papp B→A at 90 min, 10 μM (in vitro; replicate 3): 17 ×10⁻⁶ cm/s

CNC(=C[N+](=O)[O-])NCCSCc1ccc(CN(C)C)o1 [Ranitidine, reference compound]
Mass retention ([1]; 4 h, 50 μM): 21% | Permeability, Mean [1]: <−7* Log10[10^−6 cm/s] | Permeability, replicate 1 [1]: <−7 Log10[10^−6 cm/s] | Permeability, replicate 2 [1]: <−7 Log10[10^−6 cm/s] | Permeability, replicate 3 [1]: <−7 Log10[10^−6 cm/s]

C=C[C@H]1C[N@@]2CC[C@H]1C[C@@H]2[C@@H](O)c1ccnc2ccc(OC)cc12 [Quinidine, reference compound]
Mass retention ([1]; 4 h, 50 μM): 56% | Permeability, Mean [1]: −4.5* Log10[10^−6 cm/s] | Permeability, replicate 1 [1]: −4.6 Log10[10^−6 cm/s] | Permeability, replicate 2 [1]: −4.5 Log10[10^−6 cm/s] | Permeability, replicate 3 [1]: −4.5 Log10[10^−6 cm/s]

CC(C)[C@@H]1C(=O)N[C@@H](CCCNC(=N)N)C(=O)NCC(=O)N[C@@H](CC(=O)O)C(=O)N[C@@H](C)C(=O)N(C)[C@@H](C)C(=O)N1C [peptide 29, c(*vRGDA*A)]
Mass retention (PAMPA-GIT permeability): 15% | Permeability, Mean (PAMPA-GIT permeability): <−7 Log10[10^−6 cm/s] | Permeability, replicate 1 (PAMPA-GIT permeability): <−7 Log10[10^−6 cm/s] | Permeability, replicate 2 (PAMPA-GIT permeability): <−7 Log10[10^−6 cm/s] | Permeability, replicate 3 (PAMPA-GIT permeability): <−7 Log10[10^−6 cm/s] | efflux ratio (Caco-2 cells [2]; Table 3): 2.14 | Papp AB (Caco-2 cells [2]): 0.07 ± 0.01 cm/s × 10^6 | Papp BA (Caco-2 cells [2]): 0.15 ± 0.01 cm/s × 10^6 | Caco-2 permeability (Caco-2 cells [2]): significant lower permeability | logD ([3]; pH 7.4, LogD, pH 7.4 (mean in parentheses below reported bound)): -2.84 | LogD, pH 7.4 (mean / reported value) [3]: <−1 | efflux ratio at 90 min, 10 µM [4]: 0.4 | Papp (AB), Mean (Caco-2 cells [5]): 0.7 10^−6 cm/s | Papp (AB), replicate 1 (Caco-2 cells [5]): 1.0 10^−6 cm/s | Papp (AB), replicate 2 (Caco-2 cells [5]): 0.2 10^−6 cm/s | Papp (AB), replicate 3 (Caco-2 cells [5]): 0.9 10^−6 cm/s | Papp (BA), Mean (Caco-2 cells [5]): 0.3 10^−6 cm/s | Papp (BA), replicate 1 (Caco-2 cells [5]): 0.3 10^−6 cm/s | Papp (BA), replicate 2 (Caco-2 cells [5]): 0.4 10^−6 cm/s | Papp (BA), replicate 3 (Caco-2 cells [5]): 0.2 10^−6 cm/s

CC(C)C[C@@H]1NC(=O)CNC(=O)[C@@H]2CCCN2C(=O)[C@@H]2CCCN2C(=O)[C@H](CC(C)C)NC(=O)[C@H](CC(=O)O)NC(=O)CNC(=O)[C@H](CCCNC(=N)N)NC1=O [FRX068] (cyclo(RGDLPPGL))
Papp A→B ([6]; Mean): 0.3 ×10⁻⁶ cm/s | Papp A→B ([6]; replicate 1): 0.3 ×10⁻⁶ cm/s | Papp A→B ([6]; replicate 2): 0.2 ×10⁻⁶ cm/s | Papp A→B ([6]; replicate 3): 0.2 ×10⁻⁶ cm/s | Papp B→A ([6]; Mean): 0.3 ×10⁻⁶ cm/s | Papp B→A ([6]; replicate 1): 0.3 ×10⁻⁶ cm/s | Papp B→A ([6]; replicate 2): 0.3 ×10⁻⁶ cm/s | Papp B→A ([6]; replicate 3): 0.3 ×10⁻⁶ cm/s | logD ([7]; pH 7.4 (mean / reported value)): < -1 | logD [7, 9]: -1.49 | Mass retention [1]: 2% | Permeability, Mean [1]: <−7 Log10[10^−6 cm/s] | Permeability, replicate 1 [1]: <−7 Log10[10^−6 cm/s] | Permeability, replicate 2 [1]: <−7 Log10[10^−6 cm/s] | Permeability, replicate 3 [1]: <−7 Log10[10^−6 cm/s] | efflux ratio at 90 min, 10 µM (in vitro): 1.1

CCCCCCOC(=O)N=C(NCCC[C@@H]1NC(=O)[C@@H](C(C)C)N(C)C(=O)[C@H](C)N(C)C(=O)[C@H](C)NC(=O)[C@H](CC(=O)OC)NC(=O)CNC1=O)NC(=O)OCCCCCC [peptide 29P, c(*vR(Hoc)2GD(OMe)A*A)]
efflux ratio ([8]; Caco-2): 13 | Papp A→B ([8]; Caco-2, Caco-2 Papp A-to-B, A-to-B, text values (FIGS. 4, 5, 7, 17-20), unit inferred): 0.8 ×10⁻⁶ cm/s | Papp B→A ([8]; Caco-2, Caco-2 Papp B-to-A, B-to-A, text values (FIGS. 5, 18, 20), unit inferred): 10.6 ×10⁻⁶ cm/s | Papp A→B ([8]; Caco-2, Papp AB, Table 3, n = 3): 0.82 ± 0.13 ×10⁻⁶ cm/s | Papp B→A ([8]; Caco-2, Papp BA, Table 3, n = 3): 10.7 ± 2.14 ×10⁻⁶ cm/s

C[C@@H]1NC(=O)[C@H](CC(=O)O)NC(=O)CNC(=O)[C@@H](CCCNC(=N)N)NC(=O)[C@H](C)N(C)C(=O)[C@H](C)N(C)C1=O [compound 23, c(rGDA*A*A)]
Papp AB (Caco-2 cells [2]): 0.61 ± 0.09 cm/s × 10^6 | Papp BA (Caco-2 cells [2]): 1.34 ± 0.03 cm/s × 10^6 | Caco-2 permeability (Caco-2 cells [2]): significant lower permeability

CCCCCCOC(=O)N=C(NCCC[C@@H]1NC(=O)[C@H](Cc2ccccc2)NC(=O)[C@@H]2CCCN2C(=O)[C@@H]2CCCN2C(=O)[C@H](CC(C)C)NC(=O)[C@H](C)NC(=O)[C@H](CC(C)C)NC(=O)[C@H](CC(=O)OC)NC(=O)CNC1=O)NC(=O)OCCCCCC [AR372] (cyclo(ALPPF[Arg(ω,ω'-(C6H13OCO)2)]GD(OMe)L))
Papp A→B ([6]; Mean): < 0.01 ×10⁻⁶ cm/s | Papp A→B ([6]; replicate 1): < 0.01 ×10⁻⁶ cm/s | Papp A→B ([6]; replicate 2): < 0.01 ×10⁻⁶ cm/s | Papp A→B ([6]; replicate 3): < 0.01 ×10⁻⁶ cm/s | Papp B→A ([6]; Mean): 0.4 ×10⁻⁶ cm/s | Papp B→A ([6]; replicate 1): 0.5 ×10⁻⁶ cm/s | Papp B→A ([6]; replicate 2): 0.5 ×10⁻⁶ cm/s | Papp B→A ([6]; replicate 3): 0.3 ×10⁻⁶ cm/s | logD ([7]; pH 7.4 (mean / reported value)): > 4.5 | logD [7, 9]: 4.85 | logD ([7]; pH 7.4 (single replicate)): 4.8 | PAMPA permeability [1]: >−5 to >−6 | Mass retention [1]: 80% | Permeability, Mean [1]: −5.9 Log10[10^−6 cm/s] | Permeability, replicate 1 [1]: −6.2 Log10[10^−6 cm/s] | Permeability, replicate 2 [1]: −5.7 Log10[10^−6 cm/s] | Permeability, replicate 3 [1]: −5.7 Log10[10^−6 cm/s]
